Measurements from patent US9458220B2 (priority 2010, dated 2016).

Legend:
[1] = Dipeptide half life on IGF1 dipeptide extended (p-NH2-F)A19 analogs in PBS; format: physicochemical; conditions: Table 12; cleavage of (pNH2-Phe) amide linked dipeptide AibPro from the parent peptide
Method: Accordingly, the IGF1A chain alone was determined to be a good model for the study of pro-drug half life on IGF1 B:A (Y^B16L^B17) analog peptides. […] For simplicity, prodrug half lives were determined using only the IGF1 A chain in the absence of the B chain. The half lives of each propeptide was determined as described in Example 5.
The IGF^B16B17 analog peptide prodrugs were incubated in PBS, pH 7.4 at 37° C. and at predetermined time intervals an aliquot was taken and further degradation was quenched with 0.1% TFA and the aliquot was subjected to analytical HPLC analysis. Peaks a and b, representing the prodrug and active forms of the IGF^B16B17 analog peptide were identified with LC-MS and quantified by integration of peak area an HPLC. FIGS. 9A-9C show the output of an HPLC analysis of the degradation of the IGF^B16B17 analog peptide prodrug: IGF1A(Ala)^6,7,11,20(Aib-Pro-pNH—F)^19. Aliquots were taken at 20 minutes (FIG. 9A), 81 minutes (FIG. 9B) and 120 minutes (FIG. 9C) after beginning the incubation of the prodrug in PBS.

[2] = molecular target: T1, human insulin receptor (Homo sapiens, UniProt P06213); test: Insulin receptor competition binding assay (scintillation proximity); conditions: Table 9
T1 construct: expressed in transfected cells; plasma membrane fragments

[3] = molecular target: T2, human IGF-1 receptor (Homo sapiens, UniProt P08069); test: IGF-1 receptor competition binding assay (scintillation proximity); conditions: Table 9
T2 construct: expressed in transfected cells; plasma membrane fragments
T2 sequence (P08069 31-736 limits assumed): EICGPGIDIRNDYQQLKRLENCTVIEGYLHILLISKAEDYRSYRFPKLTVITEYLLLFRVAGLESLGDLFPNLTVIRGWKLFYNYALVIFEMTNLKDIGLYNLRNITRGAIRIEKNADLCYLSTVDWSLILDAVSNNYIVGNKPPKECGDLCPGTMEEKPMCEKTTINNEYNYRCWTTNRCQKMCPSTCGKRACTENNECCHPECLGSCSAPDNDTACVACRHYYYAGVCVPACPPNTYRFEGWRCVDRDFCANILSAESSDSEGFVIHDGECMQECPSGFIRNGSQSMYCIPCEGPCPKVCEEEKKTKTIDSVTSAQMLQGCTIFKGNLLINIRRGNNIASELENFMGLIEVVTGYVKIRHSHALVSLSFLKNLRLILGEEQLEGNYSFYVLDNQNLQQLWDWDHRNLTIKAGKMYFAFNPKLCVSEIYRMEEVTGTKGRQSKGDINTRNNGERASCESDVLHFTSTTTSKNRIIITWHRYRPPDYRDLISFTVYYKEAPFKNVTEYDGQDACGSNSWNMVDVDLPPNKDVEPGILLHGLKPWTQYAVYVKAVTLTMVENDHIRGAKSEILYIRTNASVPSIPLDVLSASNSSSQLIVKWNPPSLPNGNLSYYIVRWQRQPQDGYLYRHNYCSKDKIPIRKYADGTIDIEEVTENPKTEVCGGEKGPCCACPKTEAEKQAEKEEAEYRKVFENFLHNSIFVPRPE
T2 sequence (P08069 741-1367 partner limits assumed): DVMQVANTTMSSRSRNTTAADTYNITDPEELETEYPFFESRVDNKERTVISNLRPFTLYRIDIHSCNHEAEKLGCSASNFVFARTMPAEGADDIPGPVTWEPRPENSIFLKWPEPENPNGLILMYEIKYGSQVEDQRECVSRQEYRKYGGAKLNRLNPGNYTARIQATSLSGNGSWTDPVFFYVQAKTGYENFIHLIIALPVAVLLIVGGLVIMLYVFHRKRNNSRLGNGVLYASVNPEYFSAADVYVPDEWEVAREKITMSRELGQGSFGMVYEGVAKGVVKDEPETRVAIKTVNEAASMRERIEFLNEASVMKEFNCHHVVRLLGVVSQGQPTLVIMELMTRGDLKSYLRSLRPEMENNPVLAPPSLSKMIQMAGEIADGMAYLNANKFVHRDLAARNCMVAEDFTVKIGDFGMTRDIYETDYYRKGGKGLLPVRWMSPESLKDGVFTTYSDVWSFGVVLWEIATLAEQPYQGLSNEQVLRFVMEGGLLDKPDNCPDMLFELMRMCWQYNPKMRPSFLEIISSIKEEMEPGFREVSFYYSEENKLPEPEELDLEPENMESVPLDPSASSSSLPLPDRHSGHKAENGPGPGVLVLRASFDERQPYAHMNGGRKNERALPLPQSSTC

T1 sequence (P06213 28-758 limits assumed): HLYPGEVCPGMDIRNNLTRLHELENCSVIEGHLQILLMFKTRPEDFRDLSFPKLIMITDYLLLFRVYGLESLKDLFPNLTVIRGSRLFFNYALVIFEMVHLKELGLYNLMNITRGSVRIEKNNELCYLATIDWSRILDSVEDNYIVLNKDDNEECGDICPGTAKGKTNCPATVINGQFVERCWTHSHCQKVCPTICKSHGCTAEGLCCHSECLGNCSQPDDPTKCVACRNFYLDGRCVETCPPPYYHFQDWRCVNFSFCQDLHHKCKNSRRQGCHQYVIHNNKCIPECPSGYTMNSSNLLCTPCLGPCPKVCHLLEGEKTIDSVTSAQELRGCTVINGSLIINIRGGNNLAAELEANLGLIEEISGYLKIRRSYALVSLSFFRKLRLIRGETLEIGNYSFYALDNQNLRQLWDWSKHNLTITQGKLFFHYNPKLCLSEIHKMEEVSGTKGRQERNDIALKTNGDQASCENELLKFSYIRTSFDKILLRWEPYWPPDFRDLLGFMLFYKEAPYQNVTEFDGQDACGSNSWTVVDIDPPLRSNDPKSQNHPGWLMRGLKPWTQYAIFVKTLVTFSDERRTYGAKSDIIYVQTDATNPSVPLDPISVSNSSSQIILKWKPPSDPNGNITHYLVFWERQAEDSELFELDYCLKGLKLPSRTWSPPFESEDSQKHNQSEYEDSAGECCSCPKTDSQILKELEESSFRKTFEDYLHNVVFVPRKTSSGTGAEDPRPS
T1 sequence (P06213 763-1382 partner limits assumed): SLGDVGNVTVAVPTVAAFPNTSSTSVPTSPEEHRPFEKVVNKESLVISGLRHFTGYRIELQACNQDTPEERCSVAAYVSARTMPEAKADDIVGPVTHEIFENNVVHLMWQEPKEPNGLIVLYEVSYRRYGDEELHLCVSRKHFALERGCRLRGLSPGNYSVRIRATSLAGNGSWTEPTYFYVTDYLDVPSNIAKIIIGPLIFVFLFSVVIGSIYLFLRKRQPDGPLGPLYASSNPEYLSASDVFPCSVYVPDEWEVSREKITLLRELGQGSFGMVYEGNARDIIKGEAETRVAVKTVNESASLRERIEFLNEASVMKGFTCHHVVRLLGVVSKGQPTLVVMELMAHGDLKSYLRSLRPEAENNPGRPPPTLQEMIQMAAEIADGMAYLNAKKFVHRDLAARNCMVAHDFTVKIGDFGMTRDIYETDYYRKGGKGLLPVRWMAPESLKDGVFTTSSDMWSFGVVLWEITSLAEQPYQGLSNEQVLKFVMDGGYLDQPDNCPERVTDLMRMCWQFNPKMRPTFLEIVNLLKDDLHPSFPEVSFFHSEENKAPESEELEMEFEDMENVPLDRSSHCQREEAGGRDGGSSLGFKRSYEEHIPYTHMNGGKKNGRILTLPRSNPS

**Q.** Which “Half Life” value [1] does the source give for CC[C@H](C)[C@H](NC(=O)CN)C(=O)N[C@H](C(=O)N[C@@H](CC(=O)O)C(=O)N[C@@H](CCC(=O)O)C(=O)N[C@H]1CSSC[C@@H]2NC(=O)[C@H](CO)NC(=O)[C@H](CCCNC(=N)N)NC(=O)[C@H](Cc3ccccc3)NC(=O)[C@H](CSSC[C@H](NC(=O)[C@H](CC(C)C)NC(=O)[C@@H](NC(=O)[C@H](CCC(=O)O)NC(=O)[C@@H]3CCCN3C(=O)CN)[C@@H](C)O)C(=O)NCC(=O)N[C@@H](C)C(=O)N[C@@H](CCC(=O)O)C(=O)N[C@@H](CC(C)C)C(=O)N[C@@H](C(C)C)C(=O)N[C@@H](CC(=O)O)C(=O)N[C@@H](C)C(=O)N[C@@H](CC(C)C)C(=O)N[C@@H](Cc3ccc(O)cc3)C(=O)N[C@@H](CC(C)C)C(=O)N[C@@H](C(C)C)C(=O)N[C@H](C(=O)NCC(=O)N[C@@H](CC(=O)O)C(=O)N[C@@H](CCCNC(=N)N)C(=O)NCC(=O)N[C@@H](Cc3ccccc3)C(=O)N[C@@H](Cc3ccc(O)cc3)C(=O)N[C@@H](Cc3ccccc3)C(=O)N[C@@H](CC(N)=O)C(=O)N[C@@H](CCCCN)C(=O)N3CCC[C@H]3C(=O)N[C@H](C(N)=O)[C@@H](C)O)CSSC[C@@H](C(=O)N[C@@H](C)C(=O)O)NC(=O)[C@H](Cc3ccc(NC(=O)[C@@H]4CCCN4C(=O)C(C)(C)N)cc3)NC(=O)[C@H](CCSC)NC(=O)[C@H](CCC(=O)O)NC(=O)[C@H](CC(C)C)NC(=O)[C@H](CCCNC(=N)N)NC(=O)[C@H](CCCNC(=N)N)NC(=O)[C@H](CC(C)C)NC(=O)[C@H](CC(=O)O)NC2=O)NC1=O)C(C)C [IGF1 B:A(pNH2-Phe)^A19] here?
**A.** Its value is 1.6 h.

**Q.** For CC[C@H](C)[C@H](NC(=O)CN)C(=O)N[C@H](C(=O)N[C@@H](CC(=O)O)C(=O)N[C@@H](CCC(=O)O)C(=O)N[C@@H](CSCNC(C)=O)C(=O)N[C@@H](CSSC[C@H](NC(=O)[C@H](CC(C)C)NC(=O)[C@@H](NC(=O)[C@H](CCC(=O)O)NC(=O)[C@@H]1CCCN1C(=O)CN)[C@@H](C)O)C(=O)NCC(=O)N[C@@H](C)C(=O)N[C@@H](CCC(=O)O)C(=O)N[C@@H](CC(C)C)C(=O)N[C@H](C(=O)N[C@@H](CC(=O)O)C(=O)N[C@@H](C)C(=O)N[C@@H](CC(C)C)C(=O)N[C@@H](Cc1ccc(O)cc1)C(=O)N[C@@H](CC(C)C)C(=O)N[C@H](C(=O)N[C@@H](CSCNC(C)=O)C(=O)NCC(=O)N[C@@H](CC(=O)O)C(=O)N[C@@H](CCCNC(=N)N)C(=O)NCC(=O)N[C@@H](Cc1ccccc1)C(=O)N[C@@H](Cc1ccc(O)cc1)C(=O)N[C@@H](Cc1ccccc1)C(=O)N[C@@H](CC(N)=O)C(=O)N[C@@H](CCCCN)C(=O)N1CCC[C@H]1C(=O)N[C@H](C(N)=O)[C@@H](C)O)C(C)C)C(C)C)C(=O)N[C@@H](Cc1ccccc1)C(=O)N[C@@H](CCCNC(=N)N)C(=O)N[C@@H](CO)C(=O)N[C@@H](CSCNC(C)=O)C(=O)N[C@@H](CC(=O)O)C(=O)N[C@@H](CC(C)C)C(=O)N[C@@H](CCCNC(=N)N)C(=O)N[C@@H](CCCNC(=N)N)C(=O)N[C@@H](CC(C)C)C(=O)N[C@@H](CCC(=O)O)C(=O)N[C@@H](CCSC)C(=O)N[C@@H](Cc1ccc(NC(=O)[C@@H]2CCCN2C(=O)C(C)(C)N)cc1)C(=O)N[C@@H](CSCNC(C)=O)C(=O)N[C@@H](C)C(=O)O)C(C)C, which “Half Life” value [1] is on record?
**A.** Its value is 1.8 h.

**Q.** Which “Insulin Receptor % insulin (in test)” value [2] does the source give for CC[C@H](C)[C@H](NC(=O)CN)C(=O)N[C@H](C(=O)N[C@@H](CC(=O)O)C(=O)N[C@@H](CCC(=O)O)C(=O)N[C@H]1CSSC[C@@H]2NC(=O)[C@H](CO)NC(=O)[C@H](CCCNC(=N)N)NC(=O)[C@H](Cc3ccccc3)NC(=O)[C@H](CSSC[C@H](NC(=O)[C@H](CC(C)C)NC(=O)[C@H](Cc3c[nH]cn3)NC(=O)[C@H](CCC(N)=O)NC(=O)[C@H](CC(N)=O)NC(=O)[C@@H](NC(=O)[C@@H](N)Cc3ccccc3)C(C)C)C(=O)NCC(=O)N[C@@H](C)C(=O)N[C@@H](CCC(=O)O)C(=O)N[C@@H](CC(C)C)C(=O)N[C@@H](C(C)C)C(=O)N[C@@H](CC(=O)O)C(=O)N[C@@H](C)C(=O)N[C@@H](CC(C)C)C(=O)N[C@@H](Cc3ccc(O)cc3)C(=O)N[C@@H](CC(C)C)C(=O)N[C@@H](C(C)C)C(=O)N[C@H](C(=O)NCC(=O)N[C@@H](CC(=O)O)C(=O)N[C@@H](CCCNC(=N)N)C(=O)NCC(=O)N[C@@H](Cc3ccccc3)C(=O)N[C@@H](Cc3ccc(O)cc3)C(=O)N[C@@H](Cc3ccccc3)C(=O)N[C@@H](CC(N)=O)C(=O)N[C@@H](CCCCN)C(=O)N3CCC[C@H]3C(=O)N[C@H](C(N)=O)[C@@H](C)O)CSSC[C@@H](C(=O)N[C@@H](C)C(N)=O)NC(=O)[C@H](Cc3ccc(O)cc3)NC(=O)[C@H](CCSC)NC(=O)[C@H](CCC(=O)O)NC(=O)[C@H](CC(C)C)NC(=O)[C@H](CCCNC(=N)N)NC(=O)[C@H](CCCNC(=N)N)NC(=O)[C@H](CC(C)C)NC(=O)[C@H](CC(=O)O)NC2=O)NC1=O)C(C)C [IGF-1 A: In B (1-5)-IGF-1 B (YL) (6-30)] here?
**A.** Its value is 62.4%.

**Q.** And the “Insulin Receptor % native insulin activity (0.6 nM)” value [2]?
**A.** The value was 193.5%.

**Q.** What about the “IGF-1 Receptor % IGF-1 (in test)” value [3] of the same compound?
**A.** Its value is 3.6%.
